Measurements: a melting point compilation (Tetko et al.; mined from patent text by program, amines drawn as free bases though some values may be those of a salt)

Row | melting point | SMILES
1 | 117 to 118 °C | C=CCC(C(=O)OC)(C(=O)OC)C(Cc1ccccc1N)c1ccc(OC)cc1 (stereo not drawn)
2 | 76 to 78 °C | COc1ccc(Sc2ccccc2CCl)cc1
3 | 124 °C | COc1cc(-c2ccc(C(C)C)cc2)cc2oc(=O)c(Cl)c(C)c12
4 | 62 °C | O=[N+]([O-])c1cc(Br)cc(F)c1O
5 | 187 to 188 °C | O=C1Nc2cccnc2Nc2ccc(Br)cc21
6 | 136 to 137 °C | COC(=O)COc1ccc(-c2ccc[nH]2)cc1
7 | 137 to 139 °C | N#CC=Cc1ccc(Cl)cc1C(=O)c1ccccc1Cl
8 | 229 °C | CC(C)(C)c1cc(-c2n[nH]c(=O)s2)cc(C(C)(C)C)c1O
9 | 159 to 160 °C | COc1cc(C(F)(F)F)nn1-c1ccc(NC(=O)c2snnc2C)cc1
10 | 89 to 91 °C | CN1CCN(S(=O)(=O)c2ccc(N3CCC(NC[C@H](O)c4ccc(O)c(NS(C)(=O)=O)c4)CC3)cc2)CC1
11 | 105 to 106 °C | CN1C(=O)SCC1C(=O)NCCO[N+](=O)[O-] (stereo not drawn)
12 | 105 to 108 °C | N#Cc1cscc1Nc1c(Cl)cccc1Cl
13 | 213 to 214 °C | Cc1c(F)cc(C(=N)N)c(Oc2ncccc2Oc2cccnc2)c1F
14 | 126 to 128 °C | CCCC(=O)OCC(=O)C1(OC(=S)CC)CCC2C3CC(C)C4=CC(=O)C=CC4(C)C3C(O)CC21C (stereo not drawn)
15 | 105 to 107 °C | CCCCN(CCCC)C(=O)c1c(C)n(CCc2ccccc2)c2ccc(O)c(CN3CCCCC3)c12
16 | 84 to 86 °C | CN(C)CCCn1cc(-c2ccccc2)sc1=Nc1ccccc1
17 | 134 to 136 °C | Clc1ncc(-c2ccco2)cn1
18 | 204 °C | CCc1cn2ccccc2c1S(=O)(=O)c1ccc(O)cc1
19 | 72.5 to 74 °C | CCOCN1C(C)=C(C(=O)OC)C(c2cccc([N+](=O)[O-])c2)C(C(=O)OCCBr)=C1C (stereo not drawn)
20 | 185 °C | CCn1cc(-c2cccc(C(F)(F)F)c2)c(=O)c(-c2cccc(C(F)(F)F)c2)c1
21 | 97 to 100 °C | COc1ccc(Cl)cc1C(=O)NCCc1ccc(CCCCCCCCCC(=O)O)cc1
22 | 127 to 128 °C | COC(=O)N1CCc2onc(O)c2CC1

Row | melting point | SMILES
23 | 75 to 79 °C | CC(C)Oc1ccccc1OCCCN1CCC(C(O)(c2ccc(F)cc2)c2ccc(F)cc2)CC1
24 | 105 to 106 °C | O=C(Cc1ccccc1Cl)c1ccc(I)cc1
25 | 178 to 180 °C | OCCN1CCC(=C2c3ccccc3Sc3ccc(Cl)cc32)CC1
26 | 138 to 141 °C | Cn1c(Cl)nc2cc(F)ccc21
27 | 108 to 110 °C | Cc1ccc(P(c2ccc(C)cc2)c2cccc3c2-c2c(cccc2P(c2ccc(C)cc2)c2ccc(C)cc2)OCCCO3)cc1
28 | 84 to 85 °C | COC(=O)c1ccc([C@H]2CC[C@H](C=O)CC2)cc1
29 | 215 to 217 °C | CCCn1ccc2c(c1=O)C(c1ccccc1)C(C(=O)OCC)=C(C)N2 (stereo not drawn)
30 | 240 to 245 °C | CCCCCCCCCCCCCCCC(=O)NCCCC[C@H](N)C(=O)O
31 | 201 to 206 °C | CCc1c(NC(=O)c2cc(S(C)(=O)=O)ccc2OCC(C)C)c(C(N)=O)nn1Cc1nccn1C
32 | 184 to 187 °C | COCC(=O)Nc1cccc(C2(C3CCN(C(=O)c4ccc(O)cc4)CC3)N=C(N)N(C)C2=O)c1 (stereo not drawn)
33 | 118 to 121 °C | N#CCc1ccc(-c2onc3ccccc23)cc1
34 | 47 to 55 °C | CCCCCCCCCCCCCCCCCCOC(=O)CCCCCCCCCCCCCCCCC
35 | 62 to 68 °C | CC(=O)Nc1ccc(C(=O)OCC=CC(C)Oc2ccc(Oc3cnc4cc(Cl)ccc4n3)cc2)cc1 (stereo not drawn)
36 | 130 to 132 °C | CCOC(=O)c1cnc2ncnn2c1Cl
37 | 78 to 80 °C | CC(=NO)C(=O)c1ccccc1OCc1ccccc1
38 | 195 to 196 °C | CC(=O)Nc1ccc2c(c1)SC1(CC1)C2=O
39 | 100 to 103 °C | CCON(C(=O)Cc1c(C)cc(Cl)cc1C)C1(C#N)CCN(OC)CC1
40 | 164 to 165 °C | CC(C)N(CCN1C(=O)/C(=N/NC(=O)NCc2ccccc2)c2ccccc21)C(C)C
41 | 203 °C | CC(=O)N1CC=C(C#Cc2ccc3c(c2)NC(=O)CC(c2cccc(C#N)c2)=N3)CC1
42 | 267 to 270 °C | N[C@@H]1C[C@H]2CC[C@@H]1N(c1cc3c(cc1F)c(=O)c(C(=O)O)cn3C1CC1)C2
43 | 64 to 66 °C | CC(O)(c1ccc(Cl)cc1)c1cc2ccccc2o1 (stereo not drawn)
44 | > 300 °C | O=Cc1cc(-c2ccc(O)c(O)c2)c2cc(O)c(O)cc2c1O

The remaining lines, values behind:

Row | SMILES | melting point
45 | CCOC(=O)c1c(-c2ccc(O)cc2)c(C#N)c(=O)n2ccccc12 | 284 to 290 °C
46 | Cc1nnc(SCC2=C(C(=O)OC(c3ccccc3)c3ccccc3)N3C(=O)C(N)C3SC2)s1 (stereo not drawn) | 157 to 159 °C
47 | CCCc1ccc(C(=O)Nc2ccc(C(=O)c3ccccc3)cc2)cc1 | 119 to 122 °C
48 | Cc1nc(N)c2nc(CO)n(NC(C)C)c2c1C | 257 to 259 °C
49 | O=C(CCl)Nc1ccc(Cl)cc1C(=O)c1ccccc1 | 119 to 120 °C
50 | O=C(O)COc1c(I)cc(C(=O)c2cccs2)cc1I | 160 °C
51 | COc1ccc(-c2nc3c(C(=O)NC4CN5CCC4CC5)cccc3o2)cc1 (stereo not drawn) | 108 to 109 °C
52 | CCOC(=O)C(OC)C(=O)Nc1cccc(Cl)c1 (stereo not drawn) | 43.5 to 46.5 °C
53 | CC(C)N(C(N)=S)c1ccc2c(c1)OCO2 | 149 to 151 °C
54 | CN(N)C(=O)c1ccc(O)c(O)c1 | 202 to 205 °C
55 | CS(=O)(=O)c1ccc(-n2cncc2-c2ccc(F)cc2F)cc1 | 119 °C
56 | CC(C)(C)[Si](C)(C)OCCc1c(N)nc(SCc2ccc3ccccc3c2)nc1O | 156 to 158 °C
57 | Cc1nc2cccnc2nc1S(=O)Cc1ccccn1 (stereo not drawn) | 120 to 125 °C
58 | NC(=O)c1ccc(F)c2c1OCC(N(CCCc1c[nH]c3c(F)cc(F)cc13)C1CCC1)C2 (stereo not drawn) | 136 °C
59 | CCOC(=O)On1nnc2ccc(Cl)cc21 | 160 to 162 °C
60 | O=[N+]([O-])c1sccc1Nc1ccccc1 | 105 °C
61 | N#CN1C(=O)c2ccccc2C1=O | 189 to 191 °C
62 | COc1ccc(Oc2cccc(C(=O)NCCN(O)C(N)=O)c2)cc1 | 160 to 162 °C
63 | CCCCCCCC(=O)NCc1ccccc1 | 76 to 78 °C
64 | N#CCCOc1ccc(F)cc1 | 84 to 85 °C

Row | SMILES | melting point
65 | CC(C)n1c(C(=O)Cl)c(-c2ccc(F)cc2)c2ccccc2c1=O | 132 to 134 °C
66 | CCN(CCC12CC3CC(CC(C3)C1)C2)C(=O)NCCCc1ccncc1 | 106 to 115 °C
67 | CC(C)(C)OC(=O)N1CC2CN(Cc3ccccc3)CC(C1)O2 | 100 to 102 °C
68 | O=c1c(N2CCNCC2)nc2ccccc2n1-c1ccccc1Cl | 135 to 137 °C
69 | Fc1ccc(C(CCCN2CCN(c3cc4ccccc4cn3)CC2)c2ccc(F)cc2)cc1 | 116 to 118 °C
70 | O=C1C(Cl)C(CCl)CN1c1cccc(Cl)c1 (stereo not drawn) | 93 to 94 °C
71 | CN1CCN(Cc2cc(-c3ccc4c(c3)CCO4)nn(CC3CC3)c2=O)CC1 | 128 to 130 °C
72 | CC1(C)OC(=O)Nc2ccc(-c3ccc(CC#N)c(F)c3)cc21 | 253 to 256 °C
73 | CS(=O)(=S)OCc1c(F)c(F)c(F)c(F)c1F (stereo not drawn) | 64.2 to 64.7 °C
74 | CSc1ncc2n1-c1ccc(Cl)cc1C(c1ccccc1F)=NC2 | 180 to 181 °C
75 | CCCCOc1ccc(CCCO)c(Oc2ncc(C(F)(F)F)cc2Cl)c1 | 72.6 to 72.7 °C
76 | COc1ccc(-c2nc(C(C)=O)c[nH]2)cc1 | 248 to 250 °C
77 | O=C1OC(CO)CN1c1ccc(N2CC3CSCC3C2)c(F)c1 (stereo not drawn) | 165 to 167 °C
78 | CSc1ncc(C(=N)NO)cc1Cl | 139 to 143 °C
79 | COC(=O)c1cccc(C(=O)Nc2ccc(-n3nc(C(F)(F)F)cc3C(F)(F)F)cc2)c1 | 174 to 175 °C
80 | O=C1Cn2nccc2-c2ccccc2N1 | 236 to 240 °C
81 | S=c1[nH]cnn1C[C@]1(c2ccccc2)O[C@@H]1c1ccc(Cl)c(Cl)c1Cl (relative stereo) | 168 to 171 °C
82 | O=c1n(C2CCCCC2)c2cc(Cl)ccc2n1S(=O)(=O)c1ccc([N+](=O)[O-])cc1 | 162 °C
83 | OCc1cccc(Cc2c[nH]cn2)c1O | 152 to 155 °C
84 | C#CCN1CCC(OC)(c2cccc(OCc3ccc4ccccc4c3)c2)C1 (stereo not drawn) | 63 to 65 °C

Row | SMILES | melting point
85 | C=C(C)C(=O)Oc1ccc(S(=O)(=O)N(C(=O)OC(C)(C)C)c2ccccc2)cc1 | 112 to 114 °C
86 | CC1(C)CCC(=O)Nc2cc(OCCCCCN3CCN(c4cccc(Cl)c4Cl)CC3)ccc21 | 128 to 130 °C
87 | O=CN(O)C(CCO)CS(=O)(=O)c1ccc(-c2ccc(C(F)(F)F)cc2)cc1 (stereo not drawn) | 186 to 189 °C
88 | O=C(/C=C/c1ccc2ccccc2c1)Nc1cc(Cl)ccc1OCc1nnn[nH]1 | 218 to 223 °C
89 | CC(=O)OCC1CC(OC(C)=O)C(n2cc(C(Cl)=CI)c(=O)[nH]c2=O)O1 (stereo not drawn) | 87 to 89 °C
90 | CC(C)C(=O)n1ccc(-c2ccc(Oc3ccccc3)cc2)n1 | 49 to 51 °C
91 | O=C1c2ccccc2-c2c1c(Cl)nc1ccc(Br)cc21 | 304 to 306 °C
92 | CN1C(=O)N(CC(=O)COC(C)(C)C)C(=O)C1(C)C | 61 to 63 °C
93 | CCCc1c(OCCCCCOc2ccc3ccc(OCC(=O)OCC)cc3c2CCC(=O)OCC)ccc2c1OCCC2=O | 68 to 69.5 °C
94 | COc1ccccc1N1CCN(CC(O)COc2ccc(OCc3ccccc3)c(C(C)(C)C)c2)CC1 (stereo not drawn) | 133 to 134 °C
95 | C=C1N(C(C)(C)C)C(=O)OC12CCN(C(=O)CC)CC2 | 104 to 105 °C
96 | CCCCC#Cc1cc2c(cc1Br)C(C)(C)CCC2(C)C | 59 to 63 °C
97 | CCCc1c(C(=O)OCC)[nH]c(CC)c1C | 73 to 74 °C
98 | CCOC(=O)c1ccc(-c2ccc(Cl)cc2)[nH]1 | 148 °C
99 | CCOC(=O)C1Cc2cc3c(-c4ccccc4F)noc3cc2O1 (stereo not drawn) | 115 to 116 °C
100 | CCCCc1noc(-c2ncn3c2[C@@H]2CCCN2C(=O)c2c(Cl)cccc2-3)n1 | 181 to 182 °C
101 | O=C(NCCCCC(NC(=O)OCc1ccccc1)C(=O)NC1OC(C(=O)O)CC1O)OCc1ccccc1 (stereo not drawn) | 86 to 100 °C
102 | CCCCCCCCCCc1cnc(-c2ccc3c(c2)C(=O)C(CCCCCC)C3)nc1 (stereo not drawn) | 87 °C
103 | O=c1[nH]c(Cc2ccc(OCCc3coc(-c4ccccc4)n3)cc2)no1 | 154 to 158 °C
